# Results taken from PMC3775635, “Do N-arachidonyl-glycine (NA-glycine) and 2-arachidonoyl glycerol (2-AG) share mode of action and the binding site on the β2 subunit of GABAA receptors?” (PeerJ, 2013).
# Target: T1, GABAA receptor β2 subunit (α1β2γ2 GABAA receptor) (Rattus norvegicus, UniProt P63138)
# T1 construct: gene Gabrb2; recombinant α1β2γ2 receptor expressed in Xenopus oocytes; also concatenated α1-β2-α1/γ2-β2; with GABAA receptor α1 and γ2 subunits
# Assay: two-electrode voltage clamp in Xenopus oocytes, potentiation of GABA currents; beta1/beta2 concatemers and point mutants
# Assay type: cell-based
# T1 sequence (P63138 26-474): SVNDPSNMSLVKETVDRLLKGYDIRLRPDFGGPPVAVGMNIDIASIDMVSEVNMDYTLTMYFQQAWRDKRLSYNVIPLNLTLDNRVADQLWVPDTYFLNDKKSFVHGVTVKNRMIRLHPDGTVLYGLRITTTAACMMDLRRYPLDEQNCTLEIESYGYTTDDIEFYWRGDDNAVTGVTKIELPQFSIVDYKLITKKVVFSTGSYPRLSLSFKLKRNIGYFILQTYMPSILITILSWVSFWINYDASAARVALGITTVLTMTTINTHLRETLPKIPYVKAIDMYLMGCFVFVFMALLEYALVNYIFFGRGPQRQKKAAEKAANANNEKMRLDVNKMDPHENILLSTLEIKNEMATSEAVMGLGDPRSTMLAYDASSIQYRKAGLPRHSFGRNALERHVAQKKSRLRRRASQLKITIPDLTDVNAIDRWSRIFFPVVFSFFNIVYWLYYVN
# T1 sequence (P62813 28-455 partner): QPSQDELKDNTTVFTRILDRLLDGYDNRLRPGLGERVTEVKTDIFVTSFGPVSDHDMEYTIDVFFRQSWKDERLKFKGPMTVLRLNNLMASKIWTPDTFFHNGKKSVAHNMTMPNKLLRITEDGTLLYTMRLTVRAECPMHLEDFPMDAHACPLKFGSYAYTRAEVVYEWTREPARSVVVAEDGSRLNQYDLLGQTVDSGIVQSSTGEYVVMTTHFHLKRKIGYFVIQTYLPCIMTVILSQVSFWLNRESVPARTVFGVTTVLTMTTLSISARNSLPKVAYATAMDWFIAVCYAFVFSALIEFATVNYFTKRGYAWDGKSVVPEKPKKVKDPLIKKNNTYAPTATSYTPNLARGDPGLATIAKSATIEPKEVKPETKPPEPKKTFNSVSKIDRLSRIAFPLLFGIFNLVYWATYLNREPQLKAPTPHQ
# T1 sequence (P18508 39-466 partner): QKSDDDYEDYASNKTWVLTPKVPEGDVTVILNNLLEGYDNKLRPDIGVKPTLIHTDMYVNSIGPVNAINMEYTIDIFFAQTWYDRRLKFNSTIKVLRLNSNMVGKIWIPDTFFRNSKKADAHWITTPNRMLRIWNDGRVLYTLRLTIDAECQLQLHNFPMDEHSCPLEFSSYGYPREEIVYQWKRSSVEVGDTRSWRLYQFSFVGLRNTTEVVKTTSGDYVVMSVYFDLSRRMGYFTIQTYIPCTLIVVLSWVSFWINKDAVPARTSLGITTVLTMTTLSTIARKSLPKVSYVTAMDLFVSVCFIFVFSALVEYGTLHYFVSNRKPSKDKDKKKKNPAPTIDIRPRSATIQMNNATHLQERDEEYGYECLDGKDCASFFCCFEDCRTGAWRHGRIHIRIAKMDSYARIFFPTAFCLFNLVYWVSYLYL
smiles,measurement,value
CCCCC/C=C\C/C=C\C/C=C\C/C=C\CCCC(=O)NCC(=O)O [NA-glycine],EC50,1 to 10 µM
